Assay results taken from paper PMC6207618, “The GbsR Family of Transcriptional Regulators: Functional Characterization of the OpuAR Repressor” (Frontiers in Microbiology, 2018).
“Also recorded” adds a separate entry of the source.

System: B. infantis NRRL B-14911
Assay: Osmostress protection assay of B. infantis
Type: cell-based, Bacillus infantis
Details: basal medium with 0.9 M NaCl, 1 mM osmostress protectant, 29 h, 37°C
Procedure: Bacterial strains were propagated in Luria–Bertani (LB) liquid media at 37°C or plated on LB agar plates. The B. infantis strain NRRL B-14911 was grown in MOPS-buffered basal medium [50 mM MOPS (pH 7.5), 50 mM MgSO4, 10 mM KCl, 10 mM CaCl2, 190 mM NH4Cl, 0.33 mM K2HPO4, 0.1 mM FeSO4] supplemented with 0.5% glucose (wt/vol) as a carbon source, 0.4% casamino acids (wt/vol), 5 ml l^-1 vitamin solution A (7.8 mg l^-1 biotin, 15.6 mg l^-1 nicotinic acid, and 15.6 mg l^-1 lipoic acid; pH adjusted to 7.5), and 5 ml l^-1 vitamin solution B (15.6 mg l^-1 pantothenic acid, 15.6 mg l^-1 pyridoxine-HCl, 15.6 mg l^-1 thiamine, 15.6 mg l^-1 p-aminobenzoic acid, and 0.32 mg l^-1 cobalamin) ([Gonzalez et al., 1997]). In main cultures used for osmostress protection assays, casamino acids were left out from the growth medium. The osmolarity of growth media was adjusted by the addition of NaCl from a 5 M NaCl stock solution. If desired, osmostress protectants were added to the medium of B. infantis NRRL B-14911 cultures at a final concentration of 1 mM. For growth experiments, liquid cultures of B. infantis NRRL B-14911 were grown in 100-ml Erlenmeyer flasks containing 20-ml of medium in a water bath set to 37°C with vigorous shaking (set to 220 rpm). Pre-cultures of strains were propagated to mid-exponential growth phase in basal medium (with 0.4% casamino acids) and were then used to inoculate fresh basal medium (without casamino acids) to an optical density at 578 nm (OD578) of 0.1. Liquid cultures of B. subtilis strains were grown at 37°C in Spizizen’s minimal medium (SMM) ([Harwood and Archibald, 1990]) with 0.5% glucose as carbon source and a solution of trace elements ([Harwood and Cutting, 1990]). L-Tryptophan (20 mg l^-1) and L-phenylalanine (18 mg l^-1) were added to SMM-derived growth media to satisfy the auxotrophic needs of the B. subtilis strain JH642 (trpC2 pheA1) ([Smith et al., 2014]) and its derivatives (Supplementary Table S1). Cultures (20-ml in 100-ml Erlenmeyer flasks) of B. subtilis strains were inoculated from exponentially growing pre-cultures in SMM to an OD578 of 0.1 and were incubated in a shaking water bath (set to 220 rpm) at 37°C. If needed, the osmolarity of the growth medium was increased by the addition of NaCl (from 5 M stock solutions prepared in H2O). Compatible solutes were filter sterilized and added to the growth medium of B. subtilis strains from 100 mM stock solutions to a final concentration of 1 mM unless otherwise explicitly stated in the text.
(A) Influence of increasing salinity on the growth of B. infantis NRRL B-14911. Cultures were grown in basal medium adjusted to the indicated salinity. Growth yields were measured after 30 h of incubation at 37°C. (B) Osmostress protection assays were carried out in basal medium supplemented with 0.9 M NaCl and in the presence of 1 mM of the indicated osmostress protectants. After 29 h of incubation at 37°C, growth yields were determined by measuring the OD578 of the cultures. (C) Substrate specificity of the B. infantis OpuA transporter. The opuA operon (and its flanking opuAR gene) of B. infantis NRRL B-14911 was heterologously expressed in a derivative of B. subtilis JH642, lacking all uptake system for compatible solutes except for the L-proline-specific OpuE transporter ([Hoffmann and Bremer, 2017]; [Teichmann et al., 2017]). Growth assays were conducted in minimal medium (SMM), either in the absence or presence of 1.2 M NaCl and 1 mM of the indicated osmostress protectants. After 18 h of incubation at 37°C, the optical densities (OD578) of the cultures were measured. The given values are the means and standard deviations of four independent biological replicates.
Next, we studied the possible osmostress protection of B. infantis NRRL B-14911 by various exogenously provided compatible solutes.

Row | Structure (SMILES) | Osmostress protection (growth yield OD578)
1 | CN(C)CC(=O)O [DMG, dimethlyglycine] | moderate level of osmostress protection
2 | C[S+](C)CCC(=O)[O-] [DMSP, dimethylsulfoniopropionate] | moderate level of osmostress protection
3 | C[N+](C)(C)CCO [choline] | not osmostress protective; also recorded: does not serve as an osmostress protectant
4 | C[N+](C)(C)CC(=O)[O-] [glycine betaine] | substantial level of osmostress protection
5 | C[N+](C)(C)CCC(=O)[O-] [homobetaine] | moderate level of osmostress protection
6 | C[N+]1(C)CCC[C@H]1C(=O)[O-] [proline betaine] | substantial level of osmostress protection
